The source of these data is patent US6352977B1, “Substituted β-alanines” (Aventis Pharma Limited, priority 1998, dated 2002).

One may read the melting point as the temperature of the solid-liquid transition. `COc1cc(CC(=O)N(C)CC(=O)N(CCCN2CCCC2=O)CCC(=O)O)ccc1NC(=O)Nc1ccccc1C`: the melting point is 73 to 76 °C.
Next, `COc1cc(CC(=O)N(C)CC(=O)N(CCC(=O)O)Cc2ccc(OC)c(OC)c2)ccc1NC(=O)Nc1ccccc1C`: 183 to 187 °C.
